The melting point is the temperature of the solid-liquid transition.

These results are taken from patent US20090312322A1, “Use of Oxindole Derivatives in the Treatment of Dementia Related Diseases, Alzheimer's Disease and Conditions Associated with Glycogen Synthase Kinase-3” (AstraZeneca AB, priority 2001, published 2009).

For the compound `COc1cc2c(C3C(=O)Nc4c(F)cccc43)ncnc2cc1OCCCN1CCOCC1.Cl.Cl` (stereo not shown), the melting point was in the range of 211 to 214 °C.

Consider `CN1CCN(CCCOc2ccc3c(C4C(=O)Nc5ccc(C#N)cc54)ncnc3c2)CC1.Cl.Cl` (stereo not shown), for which the melting point is 200 °C (dec.).

As for `CNC(=O)c1ccc2c(c1)C(c1ncnc3cc(OCCCN4CCOCC4)ccc13)C(=O)N2` (stereo not shown) [Example 44, 3-[7-(3-Morpholin-4-yl-propoxy)-quinazolin-4-yl]-2-oxo-2,3-dihydro-1H-indole-5-carboxylic acid methylamide], the melting point lay within 195 to 198 °C.

Compound `CN(C)C(=O)c1ccc2c(c1)C(c1ncnc3cc(OCCCN4CCOCC4)ccc13)C(=O)N2` (stereo not shown) [Example 43, 3-[7-(3-Morpholin-4-yl-propoxy)quinazolin-4-yl]-2-oxo-2,3-dihydro-1H-indole-5-carboxylic acid dimethylamide] gave a melting point of 167.5 to 168.7 °C.
